The results in this text go back to ChEMBL document CHEMBL1133534, “1,3-Diaryl-4,5,6,7-tetrahydro-2H-isoindole derivatives: a new series of potent and selective COX-2 inhibitors in which a sulfonyl group is not a structural requisite” (J Med Chem, 2000).

Bounds are passed on as bounds.

The first test addresses T1, Prostaglandin G/H synthase 1 (Mus musculus, UniProt P22437).
T1 sequence (P22437 whole entry): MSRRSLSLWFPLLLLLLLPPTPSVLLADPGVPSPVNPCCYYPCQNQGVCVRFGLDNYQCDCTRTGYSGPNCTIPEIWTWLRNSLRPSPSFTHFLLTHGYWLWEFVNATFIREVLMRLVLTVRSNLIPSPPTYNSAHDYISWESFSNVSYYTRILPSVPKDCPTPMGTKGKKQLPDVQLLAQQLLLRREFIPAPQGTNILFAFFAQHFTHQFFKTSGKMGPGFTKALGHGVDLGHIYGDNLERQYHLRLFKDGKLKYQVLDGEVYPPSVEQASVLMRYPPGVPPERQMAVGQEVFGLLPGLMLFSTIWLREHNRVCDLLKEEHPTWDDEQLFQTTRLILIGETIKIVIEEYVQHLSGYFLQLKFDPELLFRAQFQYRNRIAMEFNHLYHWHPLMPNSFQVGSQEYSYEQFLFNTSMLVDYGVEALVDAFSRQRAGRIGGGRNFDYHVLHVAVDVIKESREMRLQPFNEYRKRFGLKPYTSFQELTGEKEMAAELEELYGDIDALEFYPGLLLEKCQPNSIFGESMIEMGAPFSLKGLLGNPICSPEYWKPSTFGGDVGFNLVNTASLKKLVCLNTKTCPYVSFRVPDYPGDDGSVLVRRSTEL
The test can be described thus: Inhibition against prostaglandin G/H synthase 1 from mouse resident macrophages.
Turning to `c1cn(-c2ccc(-c3[nH]c(-c4ccc(-n5ccnc5)cc4)c4c3CCCC4)cc2)cn1`, the IC50 was 1000 nM.
On the same count and under the same terms, for `Nn1c(-c2ccccc2)c2c(c1-c1ccccc1)CCCC2` the value was 1000 nM.
With `c1ccc(-c2cc3n(c2-c2ccccc2)CCC3)cc1`, the IC50 was < 1000 nM.
Same read-out and setting: for `Fc1ccc(-c2[nH]c(-c3ccc(-n4ccnc4)cc3)c3c2CCCC3)cc1` the value was 500 nM; for `Fc1ccc(-c2[nH]c(-c3ccc(F)cc3)c3c2C2C=CC3C2)cc1`, 500 nM.
On the same count and under the same terms, in the case of `CSc1ccc(-c2[nH]c(-c3ccc(SC)cc3)c3c2CCCC3)cc1` it was 500 nM; in that of `CS(=O)(=O)c1ccc(-c2[nH]c(-c3ccc(F)cc3)c3c2C2CCC3C2)cc1` (stereo not given), > 5000 nM.
The same measure, in the same setting: in the case of `COc1ccc(-c2[nH]c(-c3ccc(OC)cc3)c3c2CCCC3)cc1` it was 1000 nM.
Take `CC1=C(C)Cc2c(-c3ccccc3)[nH]c(-c3ccccc3)c2C1`: the IC50 was > 100 nM.
Same read-out and setting: in the case of `c1ccc(-c2cc(-c3ccccc3)n3c2CCC3)cc1` it was < 1000 nM.

The next test has as its target T2, Prostaglandin G/H synthase 2 (Mus musculus, UniProt Q05769).
T2 sequence (Q05769 whole entry): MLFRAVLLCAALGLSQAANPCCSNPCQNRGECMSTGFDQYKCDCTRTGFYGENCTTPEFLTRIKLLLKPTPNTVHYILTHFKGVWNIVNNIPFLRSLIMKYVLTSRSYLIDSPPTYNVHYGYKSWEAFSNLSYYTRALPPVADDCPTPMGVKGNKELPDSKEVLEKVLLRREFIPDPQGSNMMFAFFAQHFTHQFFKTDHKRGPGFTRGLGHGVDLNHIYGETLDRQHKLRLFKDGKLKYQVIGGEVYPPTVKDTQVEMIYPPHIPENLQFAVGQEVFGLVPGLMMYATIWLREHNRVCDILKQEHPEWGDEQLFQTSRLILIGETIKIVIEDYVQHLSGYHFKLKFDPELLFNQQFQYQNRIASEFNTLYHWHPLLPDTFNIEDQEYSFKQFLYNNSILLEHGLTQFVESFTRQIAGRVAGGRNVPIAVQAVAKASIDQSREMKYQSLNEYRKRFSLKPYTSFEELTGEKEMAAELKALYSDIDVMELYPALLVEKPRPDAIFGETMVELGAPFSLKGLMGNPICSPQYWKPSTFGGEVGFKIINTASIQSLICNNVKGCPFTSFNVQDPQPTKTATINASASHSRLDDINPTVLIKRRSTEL
Briefly: Inhibition against prostaglandin G/H synthase 2 from mouse resident macrophages.
For the compound `CS(=O)(=O)c1ccc(-c2[nH]c(-c3ccc(S(C)(=O)=O)cc3)c3c2C2CCC3C2)cc1`, the IC50 was > 10000 nM.
The same measure, in the same setting: in the case of `O=C(O)Cn1c(-c2ccccc2)c2c(c1-c1ccccc1)CCCC2` it was > 100 nM; in that of `Clc1cc2c(cc1Cl)C(c1ccccc1)NC2c1ccccc1` (stereo not given), > 100 nM.
`CC(=O)Nc1cc(-c2[nH]c(-c3ccc(F)c(NC(C)=O)c3)c3c2C2CCC3C2)ccc1F`: the IC50 was > 100 nM.
The same measure, in the same setting: for `c1cn(-c2ccc(-c3[nH]c(-c4ccc(-n5ccnc5)cc4)c4c3CCCC4)cc2)cn1` the value was > 100 nM; for `Nn1c(-c2ccccc2)c2c(c1-c1ccccc1)CCCC2`, 1.8 nM.
On to `c1ccc(CN2Cc3c(-c4ccccc4)[nH]c(-c4ccccc4)c3C2)cc1`, for which the IC50 was > 100 nM.
In turn, `c1ccc(-c2cc3n(c2-c2ccccc2)CCC3)cc1` returned an IC50 of 10 nM.
Regarding `Fc1ccc(-c2[nH]c(-c3ccc(-n4ccnc4)cc3)c3c2CCCC3)cc1`, the IC50 amounted to 42 nM. This IC50 lies about 4.2-fold higher than the previous one.
On the same count and under the same terms, in the case of `Fc1ccc(-c2[nH]c(-c3ccc(F)cc3)c3c2C2C=CC3C2)cc1` it was 4.5 nM; in that of `CSc1ccc(-c2[nH]c(-c3ccc(SC)cc3)c3c2CCCC3)cc1`, 500 nM; in that of `CS(=O)(=O)c1ccc(-c2[nH]c(-c3ccc(F)cc3)c3c2C2CCC3C2)cc1` (stereo not given), 700 nM.
Still for that read-out and setting: in the case of `c1cc(-c2[nH]c(-c3ccncc3)c3c2C2CCC3C2)ccn1` it was > 100 nM.
As for `Fc1ccc(C2NC(c3ccc(F)cc3)c3ccccc32)cc1` (stereo not given), the IC50 was > 100 nM.
The same measure, in the same setting: in the case of `COc1ccc(-c2[nH]c(-c3ccc(OC)cc3)c3c2CCCC3)cc1` it was 21.3 nM; in that of `CC1=C(C)Cc2c(-c3ccccc3)[nH]c(-c3ccccc3)c2C1`, 14.5 nM; in that of `Cn1c(-c2ccccc2)c2c(c1-c1ccccc1)CCCC2`, > 1000 nM.
Still for that read-out and setting: in the case of `CNc1cc(-c2[nH]c(-c3ccc(F)c(NC)c3)c3c2C2CCC3C2)ccc1F` it was > 100 nM; in that of `CC1=C(C)Cc2c(c(-c3ccccc3)n(C)c2-c2ccccc2)C1`, > 1000 nM.
Compound `c1ccc(-c2cc(-c3ccccc3)n3c2CCC3)cc1` yielded an IC50 of 50 nM.
